Test results reported in PMC2871279 (Nature, 2009).

Tests used:
human UT-B = biological target: T1, human UT-B (Homo sapiens, UniProt Q13336); assay: […]-urea uptake in Xenopus oocytes; type: cell-based; conditions: read-out: % inhibition at 1 mM
T1 sequence (Q13336 1-389): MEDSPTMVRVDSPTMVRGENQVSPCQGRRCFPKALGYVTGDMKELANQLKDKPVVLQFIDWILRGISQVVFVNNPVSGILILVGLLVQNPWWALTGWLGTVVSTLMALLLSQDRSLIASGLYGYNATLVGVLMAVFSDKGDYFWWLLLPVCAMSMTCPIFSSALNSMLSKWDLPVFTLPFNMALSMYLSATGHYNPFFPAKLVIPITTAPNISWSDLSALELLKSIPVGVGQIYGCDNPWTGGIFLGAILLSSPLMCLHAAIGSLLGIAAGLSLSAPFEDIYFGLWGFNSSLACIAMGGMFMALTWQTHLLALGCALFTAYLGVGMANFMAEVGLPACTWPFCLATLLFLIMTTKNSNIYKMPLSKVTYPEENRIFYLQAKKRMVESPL

dvUT [1] = biological target: T2, dvUT (Nitratidesulfovibrio vulgaris, UniProt Q72CX3); assay: […]-urea uptake in Xenopus oocytes; type: cell-based; conditions: read-out: % inhibition at 1 mM
T2 sequence (Q72CX3 1-337): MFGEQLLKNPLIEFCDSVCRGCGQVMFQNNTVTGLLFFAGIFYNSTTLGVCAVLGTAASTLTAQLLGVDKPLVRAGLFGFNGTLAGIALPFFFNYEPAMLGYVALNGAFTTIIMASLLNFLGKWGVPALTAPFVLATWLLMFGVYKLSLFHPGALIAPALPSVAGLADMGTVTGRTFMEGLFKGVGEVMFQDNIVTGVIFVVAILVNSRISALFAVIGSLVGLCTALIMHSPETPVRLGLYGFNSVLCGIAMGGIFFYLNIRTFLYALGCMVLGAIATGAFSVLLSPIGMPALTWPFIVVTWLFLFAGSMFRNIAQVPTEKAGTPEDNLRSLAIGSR

dvUT [2] = biological target: T2, dvUT; assay: scintillation proximity saturation binding, Hill fit
dvUT [3] = biological target: T2, dvUT; assay: SPA isotopic dilution of […]-urea; type: binding

inhibition at 1000 µM (human UT-B) | inhibition at 1000 µM (dvUT [1]) | Kd (dvUT [2]) | IC50 (dvUT [3]) | Compound
86% | 87% | – | – | O=C(CCc1ccc(O)cc1)c1c(O)cc(O)cc1O [phloretin]
– | – | 2300 ± 140 µM | 2300 ± 700 µM | NC(N)=O [urea]
